According to BigSolDB 2.1:

In the case of `COc1ccc(Cl)cc1C(=O)NCCc1ccc(S(=O)(=O)NC(=O)NC2CCCCC2)cc1`, the solubility (mole fraction) (in acetonitrile, 288.15 K) is reported as 8e-05, the solubility (mole fraction) (in acetonitrile, 293.15 K) is reported as 0.000106 and the solubility (mole fraction) (in acetonitrile, 298.15 K) is reported as 0.000144. It also gave a solubility (mole fraction) (in acetonitrile, 303.15 K) of 0.000184, a solubility (mole fraction) (in acetonitrile, 308.15 K) of 0.000231 and a solubility (mole fraction) (in acetonitrile, 313.15 K) of 0.0003. It also gave a solubility (mole fraction) (in acetonitrile, 318.15 K) of 0.00043, a solubility (mole fraction) (in acetonitrile, 323.15 K) of 0.000571 and a solubility (mole fraction) (in isopropanol, 288.15 K) of 0.000106. The solubility (mole fraction) (in isopropanol, 293.15 K) was 0.000121, the solubility (mole fraction) (in isopropanol, 298.15 K) was 0.000168 and the solubility (mole fraction) (in isopropanol, 303.15 K) was 0.000231. It also gave a solubility (mole fraction) (in isopropanol, 308.15 K) of 0.000309, a solubility (mole fraction) (in isopropanol, 313.15 K) of 0.000404 and a solubility (mole fraction) (in isopropanol, 318.15 K) of 0.000577. The solubility (mole fraction) (in isopropanol, 323.15 K) was 0.000863, the solubility (mole fraction) (in methanol, 288.15 K) was 0.000181 and the solubility (mole fraction) (in methanol, 293.15 K) was 0.000229. It also gave a solubility (mole fraction) (in methanol, 298.15 K) of 0.000289, a solubility (mole fraction) (in methanol, 303.15 K) of 0.000365 and a solubility (mole fraction) (in methanol, 308.15 K) of 0.000451. For the same compound, the solubility (mole fraction) (in methanol, 313.15 K) was 0.000614, the solubility (mole fraction) (in methanol, 318.15 K) was 0.000941 and the solubility (mole fraction) (in methanol, 323.15 K) was 0.00131. The solubility (mole fraction) (in n-propanol, 288.15 K) was 0.000155, the solubility (mole fraction) (in n-propanol, 293.15 K) was 0.000193 and the solubility (mole fraction) (in n-propanol, 298.15 K) was 0.000237. For the same compound, the solubility (mole fraction) (in n-propanol, 303.15 K) was 0.000302, the solubility (mole fraction) (in n-propanol, 308.15 K) was 0.000428 and the solubility (mole fraction) (in n-propanol, 313.15 K) was 0.000572. The solubility (mole fraction) (in n-propanol, 318.15 K) was 0.000751, the solubility (mole fraction) (in n-propanol, 323.15 K) was 0.00097 and the solubility (mole fraction) (in water, 288.15 K) was 9.02e-08. The solubility (mole fraction) (in water, 293.15 K) was 1.02e-07, the solubility (mole fraction) (in water, 298.15 K) was 1.26e-07 and the solubility (mole fraction) (in water, 303.15 K) was 1.57e-07. For the same compound, the solubility (mole fraction) (in water, 308.15 K) was 2.18e-07, the solubility (mole fraction) (in water, 313.15 K) was 3.04e-07 and the solubility (mole fraction) (in water, 318.15 K) was 4.35e-07. The solubility (mole fraction) (in water, 323.15 K) was 7.67e-07.
